Measured values reported in paper PMC12118597 (Science Advances, 2025).
Where “and” joins values, the source holds several entries; their conditions need not be identical. Equal values may be shown once. Read-outs that look alike come from different tables or passages of the source.

Columns and labels:
[1] = target: T1, SARS-CoV-2 NSP3 macrodomain (Mac1) (Severe acute respiratory syndrome coronavirus 2, UniProt P0DTD1); assay: biochemical; format: binding
[2] = target: T1, SARS-CoV-2 NSP3 macrodomain (Mac1); format: binding; conditions: for Number of isomers bound: ligand modeling, Mac1 crystal soak; for Isomers modeled: stereoisomer(s) modeled as bound, residues 201/202/203
[3] = SARS CoV-2 macrodomain HTRF assay
[4] = SARS CoV-2 macrodomain HTRF assay, dose-response, read-out: IC50
[5] = crystal soak 10 mM, DMSO background map
[6] = Single dose, concentration 200 μM
[7] = compound at 200 μM, mean of three to four technical replicates, read-out: % competition at 200 μM (preliminary HTRF screen)
[8] = SARS CoV-2 macrodomain HTRF assay, single dose concentration 200 μM, read-out: Average % competition

Row | SMILES | Number of isomers bound [2] | Average % competition [1, 6] | inhibition at 200 µM [1, 7] | PanDDA run, TFA/DMSO background map: 1-BDC ([2]; crystal soak 10 mM) | PanDDA run, TFA/DMSO background map: Hit ([2]; crystal soak 10 mM) | also measured
1 | Cc1c[nH]c2ncnc(NCC3(O)CCC3)c12 [AVI-3571, 1-(((5-methyl-7H-pyrrolo[2,3-d]pyrimidin-4-yl)amino)methyl)cyclobutan-1-ol] | 1 |  |  |  |  | Hill slope ([1]; HTRF binding curve, SARS-CoV-2 Mac1): 1.0; Ki [1, 3]: 14 µM; Ligand efficiency (binding enery per heavy atom) [1, 3]: 0.39; Hill slope ([1]; SARS CoV-2 macrodomain HTRF assay, dose-response): 1.0; IC50 [1, 4]: 15 µM; Occupancy difference (refined_occupancy - 2*(1-BDC)) [2]: 0; 1-BDC ([2]; PanDDA background density correction factor): 0.15; X-ray crystal structure ([2]; TRUE = crystal structure with ligand obtained): TRUE; PanDDA run, overall: Hit ([2]; crystal soak 10 mM, P43 crystal form): TRUE; PanDDA run, DMSO background map: 1-BDC [2, 5]: 0.15 and 0.2; PanDDA run, DMSO background map: Hit [2, 5]: TRUE; Total number of conformations ([2]; ligand conformations modeled in the crystal structure): 2; 2*(1-BDC) (%) ([2]; occupancy estimate from PanDDA): 30%; Refined ligand occupancy (%) ([2]; refined crystallographic occupancy): 30%; Binding site ([2]; site of ligand in X-ray crystal structure): Adenosine
2 | CCC(Nc1ncnc2[nH]ccc12)C(C)O (stereo not drawn) [AVI-3635] | 1 | 54% | 54% | 0.11 and 0.08 | TRUE | 
3 | OCC(CC(F)(F)F)Nc1ncnc2[nH]ccc12 (stereo not drawn) [AVI-3637] | 1 | 50% | 50% | 0.21 | TRUE | 
4 | OCC(Nc1ncnc2[nH]ccc12)C1CCC1 (stereo not drawn) [AVI-3638] | 1 | 77% | 77% | 0.1 | TRUE | 
5 | O=C(O)C(F)(F)F.O[C@H]1CCC[C@@H]1Nc1ncnc2[nH]ccc12 [AVI-3639] | 1 | 74% | 74% | 0.09 | TRUE | 
6 | OCC(CC1CCC1)Nc1ncnc2[nH]ccc12 (stereo not drawn) [AVI-3641] | 1 | 32% | 32% | 0.11 | TRUE | 
7 | OCC(CC(O)c1ccccc1)Nc1ncnc2[nH]ccc12 (stereo not drawn) [AVI-3642] | 1 | <10% | < 10% | 0.17 | TRUE | 
8 | CCCC(CO)Nc1ncnc2[nH]ccc12 (stereo not drawn) [AVI-3643] | 1 |  | 63% | 0.14 | TRUE | inhibition at 200 µM ([1]; Single dose, concentration 200 μM, read-out: Average % competition): 63%
9 | C#CCC(CO)Nc1ncnc2[nH]ccc12 (stereo not drawn) [AVI-3644] | 1 | 43% | 43% | 0.11 | TRUE | 
10 | OC1CCCN(c2ncnc3[nH]ccc23)C1 (stereo not drawn) [AVI-3646] | 1 |  | 20% | 0.13 | TRUE | Average % competition ([1]; SARS CoV-2 macrodomain HTRF assay, single dose concentration 200 μM): 20%
11 | CC(C)(C)CC(CO)Nc1ncnc2[nH]ccc12 (stereo not drawn) [AVI-3648] | 1 | 27% | 27% | 0.16 | TRUE | 
12 | OCC(Nc1ncnc2[nH]ccc12)C1CCCC1 (stereo not drawn) [AVI-3649] | 1 | 68% | 68% | 0.11 | TRUE | 
13 | OCC(Cc1c[nH]c2ccccc12)Nc1ncnc2[nH]ccc12 (stereo not drawn) [AVI-3650] | 2 | 71% | 71% | 0.11 | TRUE | Isomers modeled [2]: R,S
14 | OCC(Nc1ncnc2[nH]ccc12)C1CC1 (stereo not drawn) [AVI-3651] | 1 |  |  | 0.16 | TRUE | Ki [1, 3]: 45 µM; Ligand efficiency (binding enery per heavy atom) [1, 3]: 0.38; IC50 [1, 4]: 48 µM
15 | OC(c1ccccc1)C1CCCN1c1ncnc2[nH]ccc12 (stereo not drawn) [AVI-3652] | 1 |  | 35% | 0.16 | TRUE | inhibition at 200 µM [1, 8]: 35%
16 | CC1CCN(c2ncnc3[nH]ccc23)C1CO (stereo not drawn) [AVI-3655] | 1 |  | 75% | 0.18 | TRUE | inhibition at 200 µM [1, 8]: 75%
17 | CO[C@@H]1C[C@H](CO)N(c2ncnc3[nH]ccc23)C1 [AVI-3656] | 1 |  | 41% |  |  | inhibition at 200 µM [1, 8]: 41%
18 | Cn1cc(CC(CO)Nc2ncnc3[nH]ccc23)cn1 (stereo not drawn) [AVI-3657] | 1 | 24% | 24% | 0.09 | TRUE | 

Row | SMILES | Number of isomers bound [2] | Average % competition [1, 6] | inhibition at 200 µM [1, 7] | PanDDA run, TFA/DMSO background map: 1-BDC ([2]; crystal soak 10 mM) | PanDDA run, TFA/DMSO background map: Hit ([2]; crystal soak 10 mM) | also measured
19 | OCC(CC1OCCO1)Nc1ncnc2[nH]ccc12 (stereo not drawn) [AVI-3658] | 1 | 11% | 11% |  |  | 
20 | OCC(Nc1ncnc2[nH]ccc12)c1ccco1 (stereo not drawn) [AVI-3659] | 1 | 55% | 55% | 0.08 | TRUE | 
21 | OCC(CC1CCCO1)Nc1ncnc2[nH]ccc12 (stereo not drawn) [AVI-3660] | 1 | 18% | 18% | 0.17 | TRUE | 
22 | OC1CCN(c2ncnc3[nH]ccc23)C1 (stereo not drawn) [AVI-3661] |  |  | 11% | 0.12 | TRUE | inhibition at 200 µM [1, 8]: 11%
23 | OCC(CC1CC1)Nc1ncnc2[nH]ccc12 (stereo not drawn) [AVI-3662] | 1 | 44% | 44% | 0.09 | TRUE | 
24 | O[C@H]1CC[C@@H]2CCN(c3ncnc4[nH]ccc34)[C@@H]21 [AVI-3664] | 1 |  |  | 0.15 | TRUE | Ki [1, 3]: 26 µM; Ligand efficiency (binding enery per heavy atom) [1, 3]: 0.35; IC50 [1, 4]: 28 µM; Isomers modeled [2]: SRS
25 | OCC(CC1CCOC1)Nc1ncnc2[nH]ccc12 (stereo not drawn) [AVI-3665] | 1 | 11% | 11% | 0.15 | TRUE | 
26 | CCC(O)[C@H]1CCCN1c1ncnc2[nH]ccc12 (stereo partly drawn) [AVI-3666] | 1 |  |  |  |  | Ligand efficiency (binding enery per heavy atom) [1, 3]: 0.34
27 | CCC(Nc1ncnc2[nH]ccc12)C(C)(C)O (stereo not drawn) [AVI-3667] | 1 | 51% | 51% | 0.07 | TRUE | 
28 | CC(c1ccccc1)C(CO)Nc1ncnc2[nH]ccc12 (stereo not drawn) [AVI-3669] | 1 |  |  | 0.09 | TRUE | Ligand efficiency ([1]; Binding energy per heavy atom): 0.33; fold more potent / increased binding affinity than AVI-313 parent ([1]; HTRF IC50 compared with AVI-313): > 10 fold; Ki [1, 3]: 8.1 µM; Ligand efficiency (binding enery per heavy atom) [1, 3]: 0.33; IC50 ([1]; read-out: IC50 (confirmatory HTRF dose-response screen)): 8.7 µM
29 | O=C(O)C(F)(F)F.OCC1(Nc2ncnc3[nH]ccc23)CCC1 [AVI-3670] | 1 |  |  | 0.12 | TRUE | Ki [1, 3]: 36 µM; Ligand efficiency (binding enery per heavy atom) [1, 3]: 0.38; IC50 [1, 4]: 39 µM
30 | CN(C)CC(CO)Nc1ncnc2[nH]ccc12 (stereo not drawn) [AVI-3671] | 1 | <10% | < 10% | 0.13 | TRUE | 
31 | OCC(Cc1nccs1)Nc1ncnc2[nH]ccc12 (stereo not drawn) [AVI-3673] | 1 | 38% | 38% | 0.15 | TRUE | 
32 | Cc1ccccc1CC(CO)Nc1ncnc2[nH]ccc12 (stereo not drawn) [AVI-3674] | 1 | 32% | 32% | 0.15 | TRUE | 
33 | OCC(CN1CCCCC1)Nc1ncnc2[nH]ccc12 (stereo not drawn) [AVI-3677] | 1 | <10% | < 10% | 0.18 | TRUE | 
34 | OCC(Nc1ncnc2[nH]ccc12)C1CCOC1 (stereo not drawn) [AVI-3679] | 1 | 35% | 35% | 0.11 | TRUE | 
35 | O=C(O)C(F)(F)F.OCC12CC(CN1c1ncnc3[nH]ccc13)C2 [AVI-3681] | 1 |  | 54% | 0.12 | TRUE | inhibition at 200 µM [1, 8]: 54%
